From patent US20080044390A1, “Methods and compositions for the treatment of neurodegenerative disorders” (priority 2006, published 2008)
Structures can show the parent of a compound that is named as a salt. Where two headings read alike, the source gives them in different places.

System: PC12/HttN90Q103 cells
Experiment: CellTiter-Blue assay, rescue of HttN90Q103-induced cell death
Assay type: cell-based, rat
Source text: In this stable PC12 line (PC12/HttN90Q103), transcription of the Htt transgene is driven by an ecdysone-regulated promoter such that the expression of HttN90Q103 can be turned on or off by the addition or removal of the non-steroidal ecdysone analog tebufenozide (teb).
Using the engineered PC12/HttN90Q103 cell line together with Perkin Elmer's ATPlite™ assay kit or CellTiter-Blue™ assay, a high throughput assay to screen small molecules for their ability to prevent mutant Htt exon 1-induced cell death was developed and optimized.
The following formulas were used to calculate mutant Htt-induced cytotoxicity and test compound rescue: % killing=[(un-induced−induced-DMSO treated)/un-induced]×100 % rescue=[(drug treated−induced-DMSO treated)/(un-induced−induced-DMSO treated)]×100
For single-agent ranking, the assay was performed in 384-well plates to obtain duplicate dose response curves in 12-step dilutions with a dosing ratio f=2 over 3 orders of magnitude.
The uncertainty of each fitted parameter was estimated from the range over which the change in reduced chi-squared was less than one, or less than minimum reduced chi-squared if that minimum exceeded one, to allow for underestimated σI errors.
Day 1—Add Compounds 4 hours post-induction • 1) Remove compound plates from dessicator. • 2) Using the PlateMate, prepare dilution plate with 100 μL per well of the complete cell medium at room temperature in clear untreated 384-well plates. • 3) Using the MiniTrak, make compound dilution plates: 1 μL from each well of stock plates into 100 μL of media in the dilution plate for a 1:100 dilution (10× stock in media). • 4) Using the MiniTrak, add 4.5 μL of the diluted stock to each well of cells in assay plates. • 5) Make positive control solution: dilute 20 mM stock of BOC-D-FMK in media for a 10× stock. • 6) Manually add 4.5 μL positive control to C1-N1. • 7) Incubate plates at 37° C. for three days. • (for ranking combinations, steps 5 and 6 are omitted as there is positive control on the compound plates)
Day 4—CellTiter-Blue™ assay • 1) Make solution of 5% CellTiter-Blue™ in Q103 media. • 2) Using the Multidrop, add 40 μL of 5% CellTiter-Blue™ solution to each well of the assay plates. • 3) Incubate plates with CellTiter-Blue™ at 37° C.

[1] = Rattus norvegicus, PC-12, CellTiter-Blue, single agent, 250 nM tebufenozide induction, read-out: Max Effect (% rescue)
[2] = Rattus norvegicus, PC-12, CellTiter-Blue, single agent, sigmoidal fit of 12-step dose response, read-out: EC50
[3] = CellTiter-Blue, single agent, 250 nM tebufenozide induction
[4] = CellTiter-Blue, single agent, sigmoidal fit of 12-step dose response, read-out: EC50

| SMILES | Emax [1] | EC50 [2] | further results |
| --- | --- | --- | --- |
| CC(=O)c1ccc(S(=O)(=O)NC(=O)NC2CCCCC2)cc1 [Acetohexamide] | 18% | 3.9 µM | – |
| NC(=O)c1ncn([C@@H]2O[C@H](CO)[C@@H](O)[C@H]2O)c1N [Aicar] | – | – | Max Effect (% rescue) [3]: 23%; EC50 [4]: 14.1 µM |
| C=C1/C(=C\C=C2/CCC[C@]3(C)[C@@H]([C@H](C)CCCC(C)(C)O)CC[C@@H]23)C[C@@H](O)C[C@@H]1O [Calcitriol] | – | – | EC50 (Rattus norvegicus, PC-12): 0.01 µM; Emax (Rattus norvegicus, PC-12, read-out: Max Effect (% rescue)): 33% |
| C[N+](C)(C)CCOC(N)=O [Carbachol] | 15% | 6.8 µM | – |
| COC(=O)CC[C@@H](C)[C@H]1CC[C@H]2[C@@H]3[C@H](OC(C)=O)C[C@@H]4C[C@H](OC(C)=O)CC[C@]4(C)[C@H]3CC[C@]12C [Chenodeoxycholic acid diacetate methyl ester] | – | – | Max Effect (% rescue) [3]: 24%; EC50 [4]: 2.1 µM |
| O=c1cc(-c2ccccc2)oc2cc(O)cc(O)c12 [Chrysin] | 14% | 1.1 µM | – |
| Oc1ccc(Cl)cc1Cc1ccccc1 [Clorophene] | 30% | 0.9 µM | – |
| C[C@]12CC[C@H](O)CC1=CC[C@@H]1[C@@H]2CC[C@]2(C)C(=O)CC[C@@H]12 [Dehydroepiandrosterone] | 21% | 11 µM | – |
| C[C@H]1O[C@@H](O[C@H]2[C@@H](O)C[C@H](O[C@H]3[C@@H](O)C[C@H](O[C@H]4CC[C@@]5(C)[C@H](CC[C@@H]6[C@@H]5CC[C@]5(C)[C@@H](C7=CC(=O)OC7)CC[C@]65O)C4)O[C@@H]3C)O[C@@H]2C)C[C@H](O)[C@@H]1O [Digitoxin] | 11% | 3.5 µM | – |
| c1ccc2c(c1)[I+]c1ccccc1-2 [Diphenyleneiodonium] | 26% | 0.1 µM | – |
| C=C1C[C@@H]2[C@H](CC[C@]3(C)C(=O)CC[C@@H]23)[C@@]2(C)C=CC(=O)C=C12 [Exemestane] | 16% | 1.5 µM | – |
| COc1ccc(CNC(=O)Nc2ncc([N+](=O)[O-])s2)cc1 [GSK-3β inhibitor VIII (AR-A014418), N-(4-Methoxybenzyl)-N′-(5-nitro-1,3-thiazol-2-yl)urea] | 43% | 3.6 µM | – |
| O=C1NCCC1=Cc1ccc2c(c1)OCO2 [Heat shock protein inhibitor I (KNK-437), 3,4-methylenedioxy-benzylidine-γ-butyrolactam] | – | – | Max Effect (% rescue) [3]: 20%; EC50 [4]: 8.2 µM |
| C=C[C@@]1(C)CC(=O)[C@]2(O)[C@@]3(C)[C@@H](O)CCC(C)(C)[C@@H]3[C@H](OC(=O)CCN(C)C)[C@H](OC(C)=O)[C@@]2(C)O1 [NKH-477, 6-(3-dimethylaminopropionyl)forskolin] | – | – | Max Effect (% rescue) [3]: 69%; EC50 [4]: 7.2 µM |
| CO[C@@H]1[C@@H](OC(N)=O)[C@@H](O)[C@H](Oc2ccc3c(O)c(NC(=O)c4ccc(O)c(CC=C(C)C)c4)c(=O)oc3c2C)OC1(C)C [Novobiocin] | 27% | 3 µM | – |
| Cl.NCCc1ccc(S(=O)(=O)F)cc1 [Pefabloc SC] | – | – | Max Effect (% rescue) [3]: 34%; EC50 [4]: 6.8 µM |
| Cc1ccc(C(=O)Cn2c3c(sc2=N)CCCC3)cc1 [Pifithrin α, 2-(2-imino-4,5,6,7-tetrahydrobenzothiazol-3-yl)-1-p-tolylethanone hydrobromide] | 15% | 6 µM | – |
| CC(=O)[C@H]1CC[C@H]2[C@@H]3CC=C4C[C@@H](O)CC[C@]4(C)[C@H]3CC[C@]12C [Pregnenolone, 5-pregnen-3β-ol-20-one] | – | – | Max Effect (% rescue) [3]: 22%; EC50 [4]: 11.9 µM |
| C=CC[C@@H]1/C=C(\C)C[C@H](C)C[C@H](OC)[C@H]2O[C@@](O)(C(=O)C(=O)N3CCCC[C@H]3C(=O)O[C@H](/C(C)=C/[C@@H]3CC[C@@H](O)[C@H](OC)C3)[C@H](C)[C@@H](O)CC1=O)[C@H](C)C[C@@H]2OC [Tacrolimus (FK-506), Tacrolimus] | 36% | 0.1 µM | – |
| C[C@]12C=CC(=O)C=C1CC[C@@H]1[C@@H]2CC[C@]2(C)OC(=O)CC[C@@H]12 [Testolactone] | 52% | 7.6 µM | – |
| Cc1c(C)c2c(c(C)c1O)CCC(C)(COc1ccc(CC3SC(=O)NC3=O)cc1)O2 (stereo not drawn) [Troglitazone] | 49% | 17.8 µM | – |
